What was measured:
Assay type in all cases: cell-based, human
p-EGFR (Y1068) = assay: Western blot p-EGFR (Y1068) in HCC827 and HCC827GR cells; details: DBG 3, 6, 12 nM, 48 h
Procedure: (§1) HaCaT cells were grown in DMEM, whereas HCC827 and HCC827GR cells were grown in RPMI 1640. All culture media were supplemented with FBS (10 %) and P/S (1 %), and the cells were grown at 37 °C in 5 % CO2.
(§2) Cells were lysed in RIPA buffer, and protein concentration was determined using a Bio-Rad DC Protein Assay kit (Bio-Rad, Hercules, CA, USA). Protein samples from the cell lysates were resolved by sodium dodecyl sulfate-polyacrylamide gel electrophoresis and then transferred onto polyvinylidene fluoride membranes. The membranes were blocked with 3 % or 5 % skim milk and then incubated at 4 °C overnight with the indicated primary antibodies, followed by the corresponding horseradish peroxidase-conjugated secondary antibodies at RT for 2 h. Protein bands were visualized using western blotting luminol reagent solution and ImageQuant LAS 500 (GE Healthcare, Uppsala, Sweden). The density of the bands was quantified using ImageJ software (NIH, Bethesda, MD, USA).

CDK4 = assay: Immunoblot CDK4 in HCC827 and HCC827GR cells; details: for CDK4 protein ratio: relative to DBG 0 nM = 1.00
Procedure: as §1, §2

p-MET = assay: Immunoblot p-MET with NAC pretreatment, HCC827 and HCC827GR cells; details: for p-MET protein Ratio: control = 1.00
Procedure: as §1, §2

Bcl-2 = assay: Immunoblot Bcl-2 in HCC827 and HCC827GR cells; details: for BCl-2 protein Ratio: DBG 0 nM = 1.00
Procedure: as §1, §2

caspase-3 = assay: Immunoblot caspase-3 in HCC827 and HCC827GR cells; details: for caspase3 protein Ratio: DBG 0 nM = 1.00
Procedure: as §1, §2

PARP = assay: Immunoblot PARP in HCC827 and HCC827GR cells; details: for PARP protein Ratio: DBG 0 nM = 1.00
Procedure: as §1, §2

HCC827GR cells = assay: Annexin V/7-AAD apoptosis, HCC827GR; design: Early apoptosis / Total apopt / Dead / Live: unit not given here; details: for apoptotic cells (annexin V+): 48 h, background 0.92 %; for Late apoptosis/Dead / Early apoptosis / Total apopt / Dead / Live: HCC827GR
Procedure: as §1
Apoptosis was measured using a Muse™ Annexin V & Dead Cell Kit (MCH100105, Merck Millipore). The fluorescent signal was analyzed with a Muse™ Cell Analyzer.

[1] = HCC827, DBG 3 nM, DBG 0 nM 0.88
[2] = HCC827, DBG 6 nM, DBG 0 nM 0.88
[3] = HCC827, DBG 12 nM, DBG 0 nM 0.88

COc1ccc(C[C@H]2C(=O)N[C@@H](C)C(=O)N(C)[C@H]3Cc4ccc(cc4)Oc4cc(ccc4O[C@@H]4O[C@H](CO)[C@@H](O)[C@H](O)[C@H]4O)C[C@@H](C(=O)N[C@H](C)C(=O)N[C@@H](C)C(=O)N2C)N(C)C3=O)cc1 [DBG, deoxybouvardin glucoside]
phosphorylation level of EGFR (p-EGFR (Y1068)): decreased | level of CDKs (CDK4) (CDK4; DBG 3, 6, 12 nM, 48 h): significantly decreased | CDK4 protein/actin (CDK4; HCC827, DBG 3 nM, DBG 0 nM 0.59): 0.35 | CDK4 protein ratio (CDK4; HCC827, DBG 3 nM): 0.58 | CDK4 protein/actin (CDK4; HCC827, DBG 6 nM, DBG 0 nM 0.59): 0.30 | CDK4 protein ratio (CDK4; HCC827, DBG 6 nM): 0.50 | CDK4 protein/actin (CDK4; HCC827, DBG 12 nM, DBG 0 nM 0.59): 0.32 | CDK4 protein ratio (CDK4; HCC827, DBG 12 nM): 0.53 | CDK4 protein/actin (CDK4; HCC827GR, DBG 3 nM, DBG 0 nM 0.72): 0.61 | CDK4 protein ratio (CDK4; HCC827GR, DBG 3 nM): 0.85 | CDK4 protein/actin (CDK4; HCC827GR, DBG 6 nM, DBG 0 nM 0.72): 0.55 | CDK4 protein ratio (CDK4; HCC827GR, DBG 6 nM): 0.77 | CDK4 protein/actin (CDK4; HCC827GR, DBG 12 nM, DBG 0 nM 0.72): 0.30 | CDK4 protein ratio (CDK4; HCC827GR, DBG 12 nM): 0.42 | p-MET protein/actin (p-MET; HCC827, DBG 12 nM, control 1.17): 0.27 | p-MET protein Ratio (p-MET; HCC827, DBG 12 nM): 0.23 | p-MET protein/actin (p-MET; HCC827, NAC 4 mM + DBG 12 nM, control 1.17): 0.40 | p-MET protein Ratio (p-MET; HCC827, NAC 4 mM + DBG 12 nM): 0.34 | p-MET protein/actin (p-MET; HCC827GR, DBG 12 nM, control 1.14): 0.44 | p-MET protein Ratio (p-MET; HCC827GR, DBG 12 nM): 0.39 | p-MET protein/actin (p-MET; HCC827GR, NAC 4 mM + DBG 12 nM, control 1.14): 0.21 | p-MET protein Ratio (p-MET; HCC827GR, NAC 4 mM + DBG 12 nM): 0.18 | DBG-decreased phosphorylation of MET with NAC (p-MET; NAC 4 mM pretreatment, DBG 48 h): did not change | BCl-2 protein/actin (Bcl-2; HCC827, DBG 3 nM, DBG 0 nM 0.55): 0.30 | BCl-2 protein Ratio (Bcl-2; HCC827, DBG 3 nM): 0.55 | BCl-2 protein/actin (Bcl-2; HCC827, DBG 6 nM, DBG 0 nM 0.55): 0.21 | BCl-2 protein Ratio (Bcl-2; HCC827, DBG 6 nM): 0.39 | BCl-2 protein/actin (Bcl-2; HCC827, DBG 12 nM, DBG 0 nM 0.55): 0.19 | BCl-2 protein Ratio (Bcl-2; HCC827, DBG 12 nM): 0.36 | BCl-2 protein/actin (Bcl-2; HCC827GR, DBG 3 nM, DBG 0 nM 0.66): 0.59 | BCl-2 protein Ratio (Bcl-2; HCC827GR, DBG 3 nM): 0.89 | BCl-2 protein/actin (Bcl-2; HCC827GR, DBG 6 nM, DBG 0 nM 0.66): 0.47 | BCl-2 protein Ratio (Bcl-2; HCC827GR, DBG 6 nM): 0.70 | BCl-2 protein/actin (Bcl-2; HCC827GR, DBG 12 nM, DBG 0 nM 0.66): 0.19 | BCl-2 protein Ratio (Bcl-2; HCC827GR, DBG 12 nM): 0.29 | level of Bcl-2 (Bcl-2; NSCLC cells, DBG): downregulated | caspase3 protein/actin (caspase-3; [1]): 0.62 | caspase3 protein Ratio (caspase-3; HCC827, DBG 3 nM): 0.71 | caspase3 protein/actin (caspase-3; [2]): 0.55 | caspase3 protein Ratio (caspase-3; HCC827, DBG 6 nM): 0.62 | caspase3 protein/actin (caspase-3; [3]): 0.14 | caspase3 protein Ratio (caspase-3; HCC827, DBG 12 nM): 0.16 | caspase3 protein/actin (caspase-3; HCC827GR, DBG 3 nM, DBG 0 nM 0.55): 0.60 | caspase3 protein Ratio (caspase-3; HCC827GR, DBG 3 nM): 1.11 | caspase3 protein/actin (caspase-3; HCC827GR, DBG 6 nM, DBG 0 nM 0.55): 0.48 | caspase3 protein Ratio (caspase-3; HCC827GR, DBG 6 nM): 0.87 | caspase3 protein/actin (caspase-3; HCC827GR, DBG 12 nM, DBG 0 nM 0.55): 0.30 | caspase3 protein Ratio (caspase-3; HCC827GR, DBG 12 nM): 0.54 | level of whole caspase-3 (caspase-3; HCC827 and HCC827GR, DBG): decreased | PARP protein/actin (PARP; [1]): 0.17 | PARP protein Ratio (PARP; HCC827, DBG 3 nM): 0.20 | PARP protein/actin (PARP; [2]): 0.14 | PARP protein Ratio (PARP; HCC827, DBG 6 nM): 0.16 | PARP protein/actin (PARP; [3]): 0.15 | PARP protein Ratio (PARP; HCC827, DBG 12 nM): 0.17 | PARP protein/actin (PARP; HCC827GR, DBG 3 nM, DBG 0 nM 0.78): 0.46 | PARP protein Ratio (PARP; HCC827GR, DBG 3 nM): 0.59 | PARP protein/actin (PARP; HCC827GR, DBG 6 nM, DBG 0 nM 0.78): 0.23 | PARP protein Ratio (PARP; HCC827GR, DBG 6 nM): 0.29 | PARP protein/actin (PARP; HCC827GR, DBG 12 nM, DBG 0 nM 0.78): 0.12 | PARP protein Ratio (PARP; HCC827GR, DBG 12 nM): 0.16 | level of whole PARP (PARP; HCC827 and HCC827GR, DBG): decreased | apoptotic cells (annexin V+) (HCC827GR cells; DBG 3 nM): 11.08% | apoptotic cells (annexin V+) (HCC827GR cells; DBG 6 nM): 25.58% | apoptotic cells (annexin V+) (HCC827GR cells; DBG 12 nM): 42.32% | Late apoptosis/Dead (HCC827GR cells; DBG 3 nM, mean of 3 samples, untreated 0.23): 0.23 | Early apoptosis (HCC827GR cells; DBG 3 nM, mean of 3 samples, untreated 0.68): 10.85 | Total apopt (HCC827GR cells; DBG 3 nM, mean of 3 samples, untreated 0.92): 11.08 | Dead (HCC827GR cells; DBG 3 nM, mean of 3 samples, untreated 5.53): 0.05 | Live (HCC827GR cells; DBG 3 nM, mean of 3 samples, untreated 93.55): 88.87 | Dead (HCC827GR cells; DBG 3 nM, replicate 1): 0.05 | Early apoptosis (HCC827GR cells; DBG 3 nM, replicate 1): 9.50 | Late apoptosis/Dead (HCC827GR cells; DBG 3 nM, replicate 1): 0.15 | Live (HCC827GR cells; DBG 3 nM, replicate 1): 90.30 | Total apopt (HCC827GR cells; DBG 3 nM, replicate 1): 9.65 | Dead (HCC827GR cells; DBG 3 nM, replicate 2): 0.05 | Early apoptosis (HCC827GR cells; DBG 3 nM, replicate 2): 10.80 | Late apoptosis/Dead (HCC827GR cells; DBG 3 nM, replicate 2): 0.25 | Live (HCC827GR cells; DBG 3 nM, replicate 2): 88.90 | Total apopt (HCC827GR cells; DBG 3 nM, replicate 2): 11.05 | Dead (HCC827GR cells; DBG 3 nM, replicate 3): 0.05 | Early apoptosis (HCC827GR cells; DBG 3 nM, replicate 3): 12.25 | Late apoptosis/Dead (HCC827GR cells; DBG 3 nM, replicate 3): 0.30 | Live (HCC827GR cells; DBG 3 nM, replicate 3): 87.40 | Total apopt (HCC827GR cells; DBG 3 nM, replicate 3): 12.55 | Late apoptosis/Dead (HCC827GR cells; DBG 6 nM, mean of 3 samples, untreated 0.23): 0.50 | Early apoptosis (HCC827GR cells; DBG 6 nM, mean of 3 samples, untreated 0.68): 25.08 | Total apopt (HCC827GR cells; DBG 6 nM, mean of 3 samples, untreated 0.92): 25.58 | Dead (HCC827GR cells; DBG 6 nM, mean of 3 samples, untreated 5.53): 0.10 | Live (HCC827GR cells; DBG 6 nM, mean of 3 samples, untreated 93.55): 74.32 | Dead (HCC827GR cells; DBG 6 nM, replicate 1): 0.00 | Early apoptosis (HCC827GR cells; DBG 6 nM, replicate 1): 24.55 | Late apoptosis/Dead (HCC827GR cells; DBG 6 nM, replicate 1): 0.55 | Live (HCC827GR cells; DBG 6 nM, replicate 1): 74.90 | Total apopt (HCC827GR cells; DBG 6 nM, replicate 1): 25.10 | Dead (HCC827GR cells; DBG 6 nM, replicate 2): 0.15 | Early apoptosis (HCC827GR cells; DBG 6 nM, replicate 2): 25.60 | Late apoptosis/Dead (HCC827GR cells; DBG 6 nM, replicate 2): 0.40 | Live (HCC827GR cells; DBG 6 nM, replicate 2): 73.85 | Total apopt (HCC827GR cells; DBG 6 nM, replicate 2): 26.00 | Dead (HCC827GR cells; DBG 6 nM, replicate 3): 0.15 | Early apoptosis (HCC827GR cells; DBG 6 nM, replicate 3): 25.10 | Late apoptosis/Dead (HCC827GR cells; DBG 6 nM, replicate 3): 0.55 | Live (HCC827GR cells; DBG 6 nM, replicate 3): 74.20 | Total apopt (HCC827GR cells; DBG 6 nM, replicate 3): 25.65 | Late apoptosis/Dead (HCC827GR cells; DBG 12 nM, mean of 3 samples, untreated 0.23): 10.45 | Early apoptosis (HCC827GR cells; DBG 12 nM, mean of 3 samples, untreated 0.68): 31.87 | Total apopt (HCC827GR cells; DBG 12 nM, mean of 3 samples, untreated 0.92): 42.32 | Dead (HCC827GR cells; DBG 12 nM, mean of 3 samples, untreated 5.53): 0.13 | Live (HCC827GR cells; DBG 12 nM, mean of 3 samples, untreated 93.55): 57.55 | Dead (HCC827GR cells; DBG 12 nM, replicate 1): 0.15 | Early apoptosis (HCC827GR cells; DBG 12 nM, replicate 1): 31.85 | Late apoptosis/Dead (HCC827GR cells; DBG 12 nM, replicate 1): 10.85 | Live (HCC827GR cells; DBG 12 nM, replicate 1): 57.15 | Total apopt (HCC827GR cells; DBG 12 nM, replicate 1): 42.70 | Dead (HCC827GR cells; DBG 12 nM, replicate 2): 0.15 | Early apoptosis (HCC827GR cells; DBG 12 nM, replicate 2): 31.65 | Late apoptosis/Dead (HCC827GR cells; DBG 12 nM, replicate 2): 10.50 | Live (HCC827GR cells; DBG 12 nM, replicate 2): 57.70 | Total apopt (HCC827GR cells; DBG 12 nM, replicate 2): 42.15 | Dead (HCC827GR cells; DBG 12 nM, replicate 3): 0.10 | Early apoptosis (HCC827GR cells; DBG 12 nM, replicate 3): 32.10 | Late apoptosis/Dead (HCC827GR cells; DBG 12 nM, replicate 3): 10.00 | Live (HCC827GR cells; DBG 12 nM, replicate 3): 57.80 | Total apopt (HCC827GR cells; DBG 12 nM, replicate 3): 42.10
